According to publication PMC5570900, “Exploiting a novel conformational switch to control innate immunity mediated by complement protein C3a” (Nature Communications, 2017):

Legend:
[1] = Rat plasma stability; type: in vitro ADME; settings: neat rat plasma, 37 °C, over 4 h (C3a up to 10 min)
Procedure: (§1) For plasma stability studies, C3a and experimental compounds (10 μL, 1 mM in DMSO) were added to neat rat plasma (190 μL) and heated to 37 °C in a circulating water bath. Aliquots (20 µL) were collected at time points (0, 2, 5 and 10 min for C3a; 0, 5, 15, 30, 60, 120 and 240 min for other test compounds) and added directly to MeCN/H2O (80 µL, 9:1). The samples were centrifuged at 13,000 g for 3 min before supernatants were isolated and analyzed for test compound degradation via LC-MS. For liver microsomal stability studies, commercially available rat liver microsomes from Life Technologies, GIBCO were used. In brief, microsomes stored at −80 °C were slowly defrosted on ice. Test compounds (183 μL, 1 μM in 100 mM phosphate buffer pH 7.4 containing 0.1 % DMSO) were added to microsomes (5 μL) and NADPH (2 µL, 20 mM). Test solutions were heated in a circulating water bath at 37 °C for 5 min before additional cofactor NADPH (10 μL, 20 mM) was added. Aliquots (20 μL) were taken at time points (0, 5, 15, 30 and 60 min from the second addition of NADPH). Aliquots were added to MeCN/H2O (80 μL, 9:1) and centrifuged at 13,000 g for 3 min. Supernatants were analyzed for test compound degradation by LC-MSMS. Concentrations were plotted as a function of time on a semi-logarithmic graph. Rat plasma and microsomal activity was confirmed by rapid degradation of SLIGRL-NH2 (t1/2 < 5 min) in a parallel experiment.

[2] = test system: wild-type human HEK293 cells (C3aR−/−); experiment: Intracellular Ca2+ release in wild-type HEK293 cells; type: cell-based
[3] = biological target: T1, C3aR (Homo sapiens, UniProt Q16581); experiment: [125I]-hC3a competition binding on HMDMs; parameters: Concentration-dependent Ca^2+ release in human monocyte-derived macrophages (HMDMs); endogenous in cells; host or cells: primary human monocyte-derived macrophages (HMDMs); settings: [125I]-hC3a 80 pM
T1 sequence (Q16581 1-482): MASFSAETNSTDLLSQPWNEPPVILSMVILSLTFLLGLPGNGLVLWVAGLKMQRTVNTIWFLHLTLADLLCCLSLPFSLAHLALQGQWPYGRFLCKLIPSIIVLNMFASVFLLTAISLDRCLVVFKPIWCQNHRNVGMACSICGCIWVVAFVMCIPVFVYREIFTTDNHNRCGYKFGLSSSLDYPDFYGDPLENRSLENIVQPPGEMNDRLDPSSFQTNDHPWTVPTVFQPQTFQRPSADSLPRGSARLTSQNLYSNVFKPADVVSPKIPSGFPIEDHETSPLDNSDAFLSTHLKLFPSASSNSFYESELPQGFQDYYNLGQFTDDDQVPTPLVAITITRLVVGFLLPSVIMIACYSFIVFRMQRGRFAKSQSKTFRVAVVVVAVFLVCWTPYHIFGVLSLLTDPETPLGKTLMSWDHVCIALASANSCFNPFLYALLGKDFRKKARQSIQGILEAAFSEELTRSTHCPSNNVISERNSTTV
Procedure: (§2) Receptor binding was performed by ligand competition with labelled 80 pM [^125I]-C3a or 25 pM [^125I]-C5a (2200 Ci/mmol; Perkin Elmer, Torrance, CA, USA) on HMDMs (1.2 × 10^6 cells/ml). HMDMs were treated with [^125I]-C3a or [^125I]-C5a ± various concentrations of unlabelled C3a/C5a or experimental ligands were diluted with assay buffer (50 mM Tris, 3 mM MgCl2, 0.1 mM CaCl2, 0.5% (w/v) BSA, pH 7.4) for 60 min at room temperature. Unbound [^125I]-C3a or [^125I]-C5a was removed by filtration through glass microfibre filter GF/B (Whatman Iner. Ltd, England) and washed three times with cold buffer (50 mM Tris-HCl pH 7.4). Bound [^125I]-C3a or [^125I]-C5a were assessed by scintillation counting on Microbeta counter. Specific binding was defined as the difference between total binding and nonspecific binding as determined in the presence of 1 μM unlabelled C3a or C5a[4].

[4] = Rat liver microsomal stability; type: in vitro ADME; settings: rat liver microsomes, NADPH, 37 °C, over 1 h
Procedure: as §1

[5] = biological target: T1, C3aR; experiment: Intracellular Ca2+ release in HEK293 cells transfected with C3aR; type: cell-based; parameters: Concentration-dependent Ca^2+ release in human monocyte-derived macrophages (HMDMs); endogenous in cells; host or cells: primary human monocyte-derived macrophages (HMDMs)
[6] = biological target: T2, C5aR (Homo sapiens, UniProt P21730); experiment: [125I]-hC5a competition binding on HMDMs; settings: [125I]-hC5a 25 pM
T2 construct: endogenous in cells; host or cells: primary human monocyte-derived macrophages (HMDMs)
T2 sequence (P21730 1-350): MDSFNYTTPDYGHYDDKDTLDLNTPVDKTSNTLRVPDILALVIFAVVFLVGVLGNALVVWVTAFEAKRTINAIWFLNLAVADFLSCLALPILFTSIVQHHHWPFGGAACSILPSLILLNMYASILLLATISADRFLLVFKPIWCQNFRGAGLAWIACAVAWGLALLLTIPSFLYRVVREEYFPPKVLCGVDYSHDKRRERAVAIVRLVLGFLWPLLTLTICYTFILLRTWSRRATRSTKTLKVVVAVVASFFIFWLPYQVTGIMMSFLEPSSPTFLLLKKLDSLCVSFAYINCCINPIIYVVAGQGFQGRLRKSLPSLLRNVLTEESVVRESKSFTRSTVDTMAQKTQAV
Procedure: as §2

[7] = biological target: T1, C3aR; experiment: Antagonism of agonist 3-induced iCa2+ release in HMDMs (Schild analysis); type: cell-based; parameters: Concentration-dependent Ca^2+ release in human monocyte-derived macrophages (HMDMs); endogenous in cells; host or cells: primary human monocyte-derived macrophages (HMDMs)
Procedure: HMDMs were seeded to a 96-well clear-bottom black-wall assay plate at a density of 5 × 10^4 cells per well and allowed to adhere overnight. Prior to assay, cells were incubated with dye-loading buffer (Hank’s balance salt solution (HBSS) buffer, 4 μM Fluo-3 AM, 25 μl Pluronic acid F-127 and 1% fetal bovine serum) for 1 h at 37 °C. Cells were then washed once with assay buffer (HBSS supplemented with 2.5 mM probenecid and 20 mM HEPES, pH 7.4). Intracellular calcium release was monitored using a fluorescence imaging plate reader (excitation 495 nm, emission 520 nm). The percentage responses were plotted against logarithmic concentrations of each test compound[42].

Stability in rat plasma [1] | C3aR binding by competition with [125I]-hC3a [3] | Stability in rat liver microsomes [4] | Intracellular Ca2+ release ([5]; HEK293 cells transfected with C3aR (C3aR+/+), compound alone) | C5aR binding by competition with [125I]-hC5a [6] | Mode of antagonism of agonist 3-induced Ca2+ release [7] | Schild plot slope ([7]; agonist 3 with 0–1000 nM antagonist 6, pre-treated 30 min, r2 = 0.99) | Effect on Ca2+ release induced by C3a or 3 ([5]; C3aR-HEK293 cells, pre-treatment 30 min before C3a or 3) | SMILES | Intracellular Ca2+ release [2]
remained intact | compete with ^125I-labelled C3a | much more stable than C3a | did induce Ca^2+ release | no binding |  |  |  | Cc1[nH]c(C(c2ccccc2)c2ccccc2)nc1C(=O)N[C@@H](CCCNC(=N)N)C(=O)O [Compound 3] | did not induce Ca^2+ release
remained intact | compete with ^125I-labelled C3a | much more stable than C3a |  | no binding | insurmountable antagonism | 0.77 ± 0.05 | prevented | N=C(N)NCCCC(NC(=O)c1ccc(C(c2ccccc2)c2ccccc2)s1)C(=O)O (centres unmarked) [Compound 6] | did not induce Ca^2+ release
